The results in this text go back to patent publication US10414759B2, “Phenylthiazoles and uses thereof” (Purdue Research Foundation, priority 2017, dated 2019).

Converted amounts (≈) assume the structure as drawn. Like-named read-outs stand apart in the source and are kept apart here.

A short description of data set [1]: PBS solubility screen (turbidometric). Type of data set: physicochemical. The settings on record: aqueous buffer, kinetic from dmso stock. How it is done: The solutions were diluted 100-fold into PBS in a 96-well plate and mixed. The absorbance of the PBS-containing plate was measured prior to addition of the test agents to determine the background absorbance. After 2 h, the presence of precipitate was detected by turbidity (absorbance at 540 nm). […] The solubility limit is reported as the highest experimental concentration with no evidence of turbidity.

Data set [2] is described as follows: Plasma pharmacokinetics after single oral dose in rats. Type of data set: in vivo, Sprague-Dawley (SD) rats. As for the experimental part:
This assay has been conducted at a credited bioequivalence center (http://www.grc-me.com/pk_pd.html). Pharmacokinetic studies were performed in male naïve Sprague-Dawley (SD) rats, (three animals) following Institutional Animal Care and Use Committee guidelines. Oral dosing was administered by gavage in a vehicle containing 5% ethanol, 45% PEG 400, and 50% water. Blood samples were collected over a 24 h period post dose into Vacutainer tubes containing EDTA-K2. Plasma was isolated, and the concentration of compound 17 in plasma was determined with LC/MS/MS after protein precipitation with acetonitrile.
Non-compartmental pharmacokinetic analysis was performed on plasma concentration data to calculate pharmacokinetic parameters using Kinetica® 2000 (release 4.4.1).

For data set [3], the system named is human keratinocytes (HaCaT). Kind of data set: In vitro cytotoxicity against HaCaT (MTS). It counts as cell-based. The following applies: 2 h incubation. As for the experimental part:
Compound 17 was assayed at concentrations of 8, 16, 32, 64, 128, and 256 μg/mL against an immortal keratinocyte cell line (HaCaT) in order to determine the potential toxic effect against mammalian cells in vitro. Cells were cultured in Dulbeco's modified Eagle's medium (Sigma-Aldrich, St. Louis, Mo., USA) with 10% fetal bovine serum (USA Scientific, Inc.) at 37° C. with 5% CO2. Controls received DMSO alone at a concentration equal to that in drug-treated cell samples. The cells were incubated with the compounds in a 96-well plate at 37° C. and 5.0% CO2 for 2 h prior to addition of the assay reagent MTS 3-(4,5-dimethylthiazol-2-yl)-5-(3-carboxymethoxyphenyl)-2-(4-sulfophenyl)-2H-tetrazolium) (Promega, Madison, Wis., USA). Corrected absorbance readings (actual absorbance readings for each treatment […]) were taken using a kinetic ELISA microplate reader (Molecular Devices, Sunnyvale, Calif., USA). The quantity of viable cells after treatment with each compound is expressed as a percentage of the control, DMSO.

In data set [4] the test system is VRE ATCC 700221. Kind of data set: MIC/MBC clinical isolate panel (Table 3). The following applies: Enterococcus, Table 3, VRE ATCC 700221. It counts as cell-based, Enterococcus faecium. How it is done:
MRSA clinical isolates, and vancomycin-resistant Staphylococcus aureus (VRSA) strain were obtained through the Network of Antimicrobial Resistance in Staphylococcus aureus (NARSA) program. In addition, vancomycin-resistant Enterococcus faecium (VRE) strain was obtained from the ATCC. Bacteria were cultured in cation-adjusted Mueller Hinton broth in a 96-well plate. Compounds, using triplicate samples, were added to the plate and serially diluted. […] Plates were visually inspected and the MIC was categorized as the concentration at which no visible growth of bacteria was observed. The average of triplicate MIC determinations is reported.
The minimum inhibitory concentration (MIC) of tested compounds and control antibiotics were determined using the broth microdilution method in accordance with the recommendations contained in the Clinical and Laboratory Standards Institute guidelines, against methicillin-sensitive (ATCC 6538 and NRS107), methicillin-resistant (MRSA), and vancomycin-resistant (VRSA) Staphylococcus aureus, Staphylococcus epidermidis, Enterococcus faecalis, E. faecium, Listeria monocytogenes, and Streptococcus pneumoniae clinical isolates. A bacterial solution equivalent to 0.5 McFarland standard was prepared and diluted in cation-adjusted Mueller-Hinton broth (CAMHB) to achieve a bacterial concentration of about 5×10^5 CFU/mL and seeded in 96-well plates. Enterococcus faecium was diluted in brain heart infusion broth. Enterococcus faecalis, Streptococcus pneumonia and Listeria monocytogenes were diluted in tryptone soya broth (TSB). Compounds and control drugs were added in the first row of 96-well plates and serially diluted (to achieve a concentration gradient ranging from 128 to 1 μg/mL). Plates were then incubated aerobically at 37° C. for at least 18 hours. The minimum bactericidal concentration (MBC) of the active compounds was tested by plating 5 μL from wells with no growth onto Tryptic soy agar (TSA) plates.

Setting [5] is: Table 6, single oral dose (30 mg/Kg) to rats.
Setting [6] is: male, Sprague-Dawley, rat, plasma, Table 6, single oral dose (30 mg/Kg) to rats.

As to `CCCCc1ccc(-c2nc(C)c(-c3ccnc(NN)n3)s2)cc1` [Compound 17, 2-(4-Butylphenyl)-5-(2-hydrazinopyrimidin-4-yl)-4-methylthiazole], in data set [1], the solubility (in general, how much of the substance goes into solution per volume) at 2 h amounted to 55 µM (≈ 18.7 µg/mL). In data set [2] (setting [5]), this molecule yielded a thalf of 8.24 h and a λz of 0.19 h⁻¹. The MRT (as a rule, a mean duration of stay, worked out from the concentration-time curve) in data set [2] (male, Sprague-Dawley, rat, plasma, po, text b112, SD rats, 50 mg/Kg orally, read-out: in vivo mean residence time (MRT)) is around 8 h. In addition, in data set [2] (setting [6]), the AUC (in general, the area under the concentration-time curve, a measure of exposure) came to 100000 ng·h/mL; the AUC(0-t) – broadly, exposure summed from dosing to a finite time, without extrapolation to infinity – was determined as 83200 ng·h/mL; the Tmax (as a rule, the time from dosing to the highest level) is 4.67 h. In data set [2] (male, Sprague-Dawley, rat, plasma, Table 6, single oral dose (30 mg/Kg) to rats, read-out: MRT (mean residence time)), the MRT was determined as 7.74 h. Also, the Cmax (as a rule, the maximum level reached in the sampled fluid or tissue) in data set [2] (male, Sprague-Dawley, rat, po, text b112, SD rats, 50 mg/Kg orally, plasma) was determined as 9300 ng/mL. In data set [2] (male, Sprague-Dawley, rat, Table 6, single oral dose (30 mg/Kg) to rats, plasma), this molecule returned a Cmax of 9330 ng/mL. In addition, in data set [3], the “nontoxic up to a concentration of” value came out at 64 µg/mL. Besides, the minimum bactericidal concentration (MBC) – broadly, the smallest concentration meeting the test's criterion for killing – in data set [4] (read-out: MBC) was 8 µg/mL (≈ 23.6 µM). For the same molecule, the MIC (commonly the lowest concentration that inhibits growth of the organism) in data set [4] (read-out: MIC) amounted to 2 µg/mL (≈ 5.89 µM).
